The results in this text go back to the OligoGym collection.

HELM strings list units from the 5' end as sugar, base in round brackets, then linkage (d deoxyribose, r ribose, m 2'-O-methyl, p phosphodiester). Strings are as the collection lists them; they lack the last nucleoside at the 3' end of the tested compound. [moe] = 2'-O-(2-methoxyethyl) (MOE); [sp] = phosphorothioate linkage; [m5C] = 5-methylcytosine

The target in the data set is ATXN2. Kind of data set: mouse, dose not given. As to conditions: ASO.

With “RNA1{[moe](T)[sp].[moe]([m5C])p.[moe]([m5C])p.[moe](A)p.[moe](A)p.d(T)[sp].d(T)[sp].d(T)[sp].d([m5C])[sp].d(A)[sp].d(G)[sp].d(A)[sp].d([m5C])[sp].d(T)[sp].d(T)[sp].[moe]([m5C])p.[moe](T)p.[moe](T)[sp].[moe](G)}$$$$ (last 3' nucleoside missing)”, the 3 h FOB score turned out to be 2 score 0-7.
“RNA1{[moe](T)[sp].[moe]([m5C])p.[moe]([m5C])p.[moe](A)p.[moe](T)p.d(T)[sp].d(A)[sp].d(T)[sp].d(T)[sp].d(T)[sp].d([m5C])[sp].d(T)[sp].d(T)[sp].d([m5C])[sp].d(A)[sp].[moe]([m5C])p.[moe](G)p.[moe](T)[sp].[moe](T)}$$$$ (last 3' nucleoside missing)” displayed a 3 h FOB score of 1 score 0-7.
The result for “RNA1{[moe](T)[sp].[moe]([m5C])p.[moe]([m5C])p.[moe](T)p.[moe](A)[sp].d(T)[sp].d([m5C])[sp].d(A)[sp].d(T)[sp].d([m5C])[sp].d(A)[sp].d(T)[sp].d(T)[sp].[moe](T)p.[moe](T)p.[moe]([m5C])[sp].[moe]([m5C])}$$$$ (last 3' nucleoside missing)” reads 1 score 0-7; that for “RNA1{[moe](T)[sp].[moe]([m5C])p.[moe]([m5C])p.[moe](T)p.[moe](A)p.d(T)[sp].d([m5C])[sp].d(A)[sp].d(T)[sp].d([m5C])[sp].d(A)[sp].d(T)[sp].d(T)[sp].d(T)[sp].d(T)[sp].[moe]([m5C])p.[moe]([m5C])p.[moe](A)[sp].[moe](G)}$$$$ (last 3' nucleoside missing)”, 3.75 score 0-7; that for “RNA1{[moe](T)[sp].[moe]([m5C])p.[moe]([m5C])p.[moe](T)p.[moe](T)p.d(G)[sp].d(T)[sp].d(T)[sp].d(G)[sp].d(T)[sp].d(A)[sp].d(T)[sp].d(G)[sp].d(G)[sp].d(T)[sp].[moe](A)p.[moe](A)p.[moe](T)[sp].[moe](T)}$$$$ (last 3' nucleoside missing)”, 5 score 0-7.
As for “RNA1{[moe]([m5C])[sp].[moe](A)p.[moe](G)p.[moe](A)p.[moe](A)p.d(A)[sp].d(G)[sp].d([m5C])[sp].d(T)[sp].d(G)[sp].d(T)[sp].d(G)[sp].d(T)[sp].d(G)[sp].d(T)[sp].[moe](T)p.[moe](T)p.[moe](A)[sp].[moe](A)}$$$$ (last 3' nucleoside missing)”, the figure is 6 score 0-7; as for “RNA1{[moe]([m5C])[sp].[moe](A)p.[moe](G)p.[moe](T)p.[moe](G)p.d(T)[sp].d(T)[sp].d(G)[sp].d([m5C])[sp].d(A)[sp].d([m5C])[sp].d(A)[sp].d(T)[sp].d(A)[sp].d(G)[sp].[moe](G)p.[moe](T)p.[moe](T)[sp].[moe](A)}$$$$ (last 3' nucleoside missing)”, 5 score 0-7; as for “RNA1{[moe]([m5C])[sp].[moe](A)p.[moe](G)p.[moe](T)p.[moe](G)p.d([m5C])[sp].d([m5C])[sp].d(T)[sp].d(T)[sp].d(T)[sp].d(A)[sp].d([m5C])[sp].d([m5C])[sp].d([m5C])[sp].d([m5C])[sp].[moe](T)p.[moe](T)p.[moe](G)[sp].[moe](A)}$$$$ (last 3' nucleoside missing)”, 5.25 score 0-7.
The result for “RNA1{[moe]([m5C])[sp].[moe](A)p.[moe](G)p.[moe]([m5C])p.[moe](A)p.d(T)[sp].d(G)[sp].d(A)[sp].d(T)[sp].d([m5C])[sp].d(T)[sp].d(T)[sp].d(G)[sp].d(T)[sp].d(G)[sp].[moe](T)p.[moe](A)p.[moe](T)[sp].[moe](A)}$$$$ (last 3' nucleoside missing)” reads 2.25 score 0-7.
“RNA1{[moe]([m5C])[sp].[moe](A)p.[moe](G)p.[moe]([m5C])p.[moe](T)p.d([m5C])[sp].d(T)[sp].d(G)[sp].d(T)[sp].d(T)[sp].d([m5C])[sp].d(G)[sp].d(A)[sp].d(T)[sp].d(G)[sp].[moe]([m5C])p.[moe](A)p.[moe](G)[sp].[moe](G)}$$$$ (last 3' nucleoside missing)” registered a 3 h FOB score of 6.25 score 0-7.
Consider “RNA1{[moe]([m5C])[sp].[moe](A)p.[moe](T)p.[moe](A)p.[moe]([m5C])p.d(G)[sp].d([m5C])[sp].d(G)[sp].d(G)[sp].d(T)[sp].d(G)[sp].d(A)[sp].d(A)[sp].d(T)[sp].d(T)[sp].[moe]([m5C])p.[moe](T)p.[moe](G)[sp].[moe](T)}$$$$ (last 3' nucleoside missing)”, for which the 3 h FOB score was 4 score 0-7.
The result for “RNA1{[moe]([m5C])[sp].[moe](A)p.[moe](T)p.[moe](T)p.[moe](T)p.d(T)[sp].d(G)[sp].d(A)[sp].d(A)[sp].d(T)[sp].d(T)[sp].d(A)[sp].d([m5C])[sp].d(A)[sp].d(A)[sp].[moe](T)p.[moe](G)p.[moe]([m5C])[sp].[moe](G)}$$$$ (last 3' nucleoside missing)” reads 1 score 0-7.
The result for “RNA1{[moe]([m5C])[sp].[moe](A)p.[moe]([m5C])p.[moe](A)[sp].[moe](G)[sp].d(T)[sp].d(T)[sp].d(T)[sp].d([m5C])[sp].d(A)[sp].d([m5C])[sp].d(T)[sp].d(A)[sp].d(G)[sp].d(G)[sp].[moe](T)p.[moe](T)p.[moe]([m5C])[sp].[moe](T)}$$$$ (last 3' nucleoside missing)” reads 4 score 0-7.
Take “RNA1{[moe]([m5C])[sp].[moe](A)p.[moe]([m5C])p.[moe](A)p.[moe](G)[sp].d(T)[sp].d(T)[sp].d(T)[sp].d([m5C])[sp].d(A)[sp].d([m5C])[sp].d(T)[sp].d(A)[sp].d(G)[sp].d(G)[sp].[moe](T)p.[moe](T)p.[moe]([m5C])[sp].[moe](T)}$$$$ (last 3' nucleoside missing)”: the 3 h FOB score was found to be 4.75 score 0-7.
The substance “RNA1{[moe]([m5C])[sp].[moe](A)p.[moe]([m5C])p.[moe](A)p.[moe](G)p.d(T)[sp].d(T)[sp].d(T)[sp].d([m5C])[sp].d(A)[sp].d([m5C])[sp].d(T)[sp].d(A)[sp].d(G)[sp].d(G)[sp].[moe](T)p.[moe](T)p.[moe]([m5C])[sp].[moe](T)}$$$$ (last 3' nucleoside missing)” registered a 3 h FOB score of 4.25 score 0-7.
As for “RNA1{[moe]([m5C])[sp].[moe](A)p.[moe]([m5C])p.[moe](A)p.[moe]([m5C])p.d(A)[sp].d([m5C])[sp].d(T)[sp].d(T)[sp].d(T)[sp].d(A)[sp].d(A)[sp].d(A)[sp].d(T)[sp].d(A)[sp].[moe]([m5C])p.[moe](A)p.[moe](G)[sp].[moe](G)}$$$$ (last 3' nucleoside missing)”, the figure is 6.5 score 0-7; as for “RNA1{[moe]([m5C])[sp].[moe](G)p.[moe](G)p.[moe](A)p.[moe](T)p.d(T)[sp].d(G)[sp].d(T)[sp].d(T)[sp].d(T)[sp].d(T)[sp].d([m5C])[sp].d(T)[sp].d(T)[sp].d([m5C])[sp].[moe](A)p.[moe](T)p.[moe](T)[sp].[moe](A)}$$$$ (last 3' nucleoside missing)”, 1 score 0-7.
In the case of “RNA1{[moe]([m5C])[sp].[moe](G)p.[moe](T)p.[moe](A)p.[moe](T)[sp].d(G)[sp].d(T)[sp].d(T)[sp].d(T)[sp].d(G)[sp].d(T)[sp].d([m5C])[sp].d(T)[sp].[moe](G)p.[moe](T)p.[moe]([m5C])[sp].[moe](T)}$$$$ (last 3' nucleoside missing)”, the 3 h FOB score came to 6 score 0-7.
The result for “RNA1{[moe]([m5C])[sp].[moe](G)p.[moe](T)p.[moe](A)p.[moe](T)p.[moe](G)p.d(T)[sp].d(T)[sp].d(T)[sp].d(G)[sp].d(T)[sp].d([m5C])[sp].d(T)[sp].d(G)[sp].d(T)[sp].d([m5C])[sp].[moe](T)p.[moe](T)[sp].[moe](A)}$$$$ (last 3' nucleoside missing)” reads 6.75 score 0-7; that for “RNA1{[moe]([m5C])[sp].[moe](G)p.[moe](T)p.[moe](A)p.[moe](T)p.d(G)[sp].d(T)[sp].d(T)[sp].d(T)[sp].d(G)[sp].d(T)[sp].d([m5C])[sp].d(T)[sp].d(G)[sp].d(T)[sp].[moe]([m5C])p.[moe](T)p.[moe](T)[sp].[moe](A)}$$$$ (last 3' nucleoside missing)”, 6.25 score 0-7.
For the substance “RNA1{[moe]([m5C])[sp].[moe](G)p.[moe](T)p.[moe](A)p.d(T)[sp].d(G)[sp].d(T)[sp].d(T)[sp].d(T)[sp].d(G)[sp].d(T)[sp].d([m5C])[sp].d(T)[sp].d(G)[sp].[moe](T)p.[moe]([m5C])p.[moe](T)p.[moe](T)[sp].[moe](A)}$$$$ (last 3' nucleoside missing)”, the 3 h FOB score was 4 score 0-7.
As for “RNA1{[moe]([m5C])[sp].[moe](G)p.[moe](T)p.[moe](G)p.[moe](G)p.d(T)[sp].d(G)[sp].d(G)[sp].d(T)[sp].d(G)[sp].d(T)[sp].d(G)[sp].d([m5C])[sp].d(G)[sp].d([m5C])[sp].[moe](A)p.[moe](T)p.[moe](G)[sp].[moe](T)}$$$$ (last 3' nucleoside missing)”, the figure is 6.25 score 0-7; as for “RNA1{[moe]([m5C])[sp].[moe](G)p.[moe](T)p.[moe](T)p.[moe](T)p.d([m5C])[sp].d([m5C])[sp].d(T)[sp].d(T)[sp].d([m5C])[sp].d(T)[sp].d([m5C])[sp].d([m5C])[sp].d([m5C])[sp].d(T)[sp].[moe](T)p.[moe](T)p.[moe](G)[sp].[moe](A)}$$$$ (last 3' nucleoside missing)”, 0 score 0-7.
The result for “RNA1{[moe]([m5C])[sp].[moe](G)p.[moe]([m5C])p.[moe](G)p.[moe](G)p.d(T)[sp].d(G)[sp].d(A)[sp].d(A)[sp].d(T)[sp].d(T)[sp].d([m5C])[sp].d(T)[sp].d(G)[sp].d(T)[sp].[moe]([m5C])p.[moe](T)p.[moe]([m5C])[sp].[moe]([m5C])}$$$$ (last 3' nucleoside missing)” reads 1 score 0-7; that for “RNA1{[moe]([m5C])[sp].[moe](T)[sp].[moe](G)[sp].[moe](G)[sp].[moe](T)[sp].d(A)[sp].d([m5C])[sp].d(A)[sp].d(G)[sp].d(T)[sp].d(T)[sp].d(G)[sp].d([m5C])[sp].d(T)[sp].d(G)[sp].[moe]([m5C])[sp].[moe](T)[sp].[moe](G)[sp].[moe]([m5C])}$$$$ (last 3' nucleoside missing)”, 7 score 0-7.
